Test results published in paper PMC6450887, “Metabolic resistance of the D-peptide RD2 developed for direct elimination of amyloid-β oligomers” (Scientific Reports, 2019).
Where “and” joins values, the source holds several entries; their conditions need not be identical. Equal entries are not always repeated. Non-standard residues stand in square brackets, D forms with d. Residues, ends and D or L forms follow the SMILES beside them. No end group written: not given here. *: point of attachment. X1 = C[C@H](O)[C@H](C(=O)*)N1CN2CCC[C@@H]2C1=O

How the values were obtained:
[1] = target: T1, human D-amino acid oxidase (hDAAO) (Homo sapiens, UniProt P14920); test: hDAAO inhibition assay; type: biochemical; details: 7.5 mM D-serine, 30 min
T1 construct: made in house; host or cells: E. coli
T1 sequence (P14920 whole entry): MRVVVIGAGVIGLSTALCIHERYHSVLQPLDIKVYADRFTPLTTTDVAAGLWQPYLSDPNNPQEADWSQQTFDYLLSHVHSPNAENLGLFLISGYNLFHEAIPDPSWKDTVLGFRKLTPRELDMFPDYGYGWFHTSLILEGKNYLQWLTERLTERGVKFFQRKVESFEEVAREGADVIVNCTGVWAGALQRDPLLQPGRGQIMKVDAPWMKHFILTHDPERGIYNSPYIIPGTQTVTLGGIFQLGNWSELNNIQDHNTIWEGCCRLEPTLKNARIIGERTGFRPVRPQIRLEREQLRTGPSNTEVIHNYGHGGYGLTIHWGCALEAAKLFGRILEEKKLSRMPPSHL
Procedure: (§1) For hDAAO activity and inhibition assays, the tested substances were incubated with 0.17 U/mL recombinant hDAAO, 0.1 U/mL horseradish peroxidase (Roche, Switzerland) and 4 µM flavin adenine dinucleotide (FAD) in 50 mM sodium phosphate buffer (pH 7.4). […] The Amplex UltraRed reagent is a fluorogenic substrate for horseradish peroxidase that reacts with the hydrogen peroxide produced by the oxidative deamination of D-amino acids to build Amplex UltroxRed, a fluorescent reaction product, which served as indicator for hDAAO activity. All enzymatic assays were conducted at room temperature in 96-well plate format using an automated liquid-handler system (epMotion 5075; Eppendorf, Hamburg, Germany). Recombinant hDAAO was overexpressed in E. coli and purified as previously reported.
To examined whether RD2 inhibits hDAAO activity, the enzyme was incubated with 7.5 mM D-serine alone and together with 0 to 625 µM RD2 or sodium benzoate (a known hDAAO inhibitor)[30], horseradish peroxidase and FAD for 30 min and the fluorescence signal of Amplex UltroxRed was recorded. hDAAO residual activity in the presence of different concentrations of RD2 or sodium benzoate was expressed relatively to the values recorded in the absence of ligands (set as 100% activity). The data were fit to a four-parameter equation to determine the curve top, bottom, IC50 and Hill slope.

[2] = Stability in simulated intestinal fluid (SIF), RP-HPLC; type: in vitro ADME; details: a few seconds
Procedure: (§2) The preparation of the media was performed as described before in Elfgen et al.[24]. Preparation of simulated gastric and intestinal fluid (SGF & SIF) was done according to the European Pharmacopoeia 7.0. Plasma samples were obtained from human blood of a volunteer donor. Pooled human liver microsomes were purchased from Sekisui XenoTech (Kansas City, USA; H1000, Lot: 0710494 and 1210270; H1500, Lot: 1210079), from Sigma-Aldrich (St. Louis, USA; M0692, Lot: SLBL1433V; M0567, Lot: SLBR2706V and SLBN7300V) and from Gibco, Thermo Fisher Scientific (Waltham, USA; HMMCPL, Lot: PL050; HMMCPM, Lot: PL039). Pooled Sprague Dawley rat liver microsomes were purchased from Sigma-Aldrich (St. Louis, USA; M9066, Lot: SLBN0707V) and from Gibco, Thermo Fisher Scientific (Waltham, USA; RTMCPL, Lot: RT053). Pooled cynomolgus monkey liver microsomes were purchased from Gibco, Thermo Fisher Scientific (Waltham, USA; MKMCPL, Lot: MK062) and from Sekisui XenoTech (Kansas City, USA; P2000, Lot: 1210334). The liver microsomes were diluted in an NADPH regenerating system (NRS).
(§3) For the stability tests, 150 µM RD2 or L-RD2 was incubated in SGF, SIF, human plasma and human liver microsomes in triplicate at 37 °C with slight shaking for different time periods. To prevent microbial contaminations in long-term plasma incubations, 0.1% sodium azide was added to the solutions. Microsomal long-term activity was examined by incubating microsomes without peptide for up to 24 h and adding L-RD2 after 8 and 24 h. The ability to degrade L-RD2 served as indicator for their activity. For the comparison of RD2 metabolite profiles across species, 150 µM RD2 was incubated in human, rat and cynomolgus liver microsomes at 37 °C for 2 and 24 h. […]
(§4) For sample analysis from stability tests (see 2.3), mobile phases were acetonitrile (A) and water (B) each supplemented with 0.15% trifluoroacetic acid (TFA) (v/v). The samples were measured isocratically at 10% solvent A for 30 min. […] A chromatographic metabolite profile of L-RD2 in SIF was recorded with the same mobile phases but using a gradient from 0 to 30% solvent A in 30 min.

[3] = tested on: Rat PC12 (pheochromocytoma) cells; test: MTT cell viability assay; type: cell-based; details: 0.125% Triton X-100, PC12 cells, 24 h, MTT
Procedure: (§5) Rat PC12 (pheochromocytoma) cells (Leibniz Institute DSMZ, Braunschweig, Germany) were cultivated in Dulbecco’s Modified Eagle Medium (DMEM) supplemented with 10% fetal bovine serum, 5% horse serum and 1% penicillin-streptomycin. 10,000 cells per well were seeded on collagen A-coated 96-well plates (Thermo Fisher Scientific, Waltham, USA) and incubated in a 95% humidified atmosphere with 5% CO2 at 37 °C for 24 h. Samples with untreated RD2 and RD2 or HSM-3 purified from human liver microsomes (see 2.8) in 10 mM sodium phosphate buffer (pH 7.4) were prepared. Buffer without peptides and Triton X-100 (cytotoxic compound) served as controls. The samples were added to the PC12 cells in quadruple and incubated in 95% humidified atmosphere with 5% CO2 at 37 °C for 24 h. Final concentrations were 2 µM untreated RD2, purified RD2, purified HSM-3 and 0.125% Triton X-100. Cell viability was then measured using the Cell Proliferation Kit I (MTT) (Roche, Basel, Switzerland) according to the manufacturer’s instruction. The final absorbance of the formazan product was determined as the absorbance at 570 nm subtracted by the absorbance at 660 nm. All results were normalized to cells that were treated with buffer only. The experiments were performed in triplicate.

[4] = Stability in simulated gastric fluid (SGF), RP-HPLC; type: in vitro ADME; details: 37 °C, read-out: peptide degraded
Procedure: as §2, with “The liver microsomes were diluted in an NADPH regenerating system (NRS).” left out
as §4

[5] = Stability in human plasma, RP-HPLC; type: in vitro ADME; details: female, 37 °C
Procedure: as §2
(§6) For the stability tests, 150 µM RD2 or L-RD2 was incubated in SGF, SIF, human plasma and human liver microsomes in triplicate at 37 °C with slight shaking for different time periods. To prevent microbial contaminations in long-term plasma incubations, 0.1% sodium azide was added to the solutions. Microsomal long-term activity was examined by incubating microsomes without peptide for up to 24 h and adding L-RD2 after 8 and 24 h. The ability to degrade L-RD2 served as indicator for their activity. For the comparison of RD2 metabolite profiles across species, 150 µM RD2 was incubated in human, rat and cynomolgus liver microsomes at 37 °C for 2 and 24 h. The peptides were extracted by precipitating the proteins with trichloroacetic acid (TCA) and subsequent centrifugation, as described previously in Elfgen et al.[24]. Peptides immediately extracted from the media and precipitated media without peptides served as controls.
For sample analysis from stability tests (see 2.3), mobile phases were acetonitrile (A) and water (B) each supplemented with 0.15% trifluoroacetic acid (TFA) (v/v). The samples were measured isocratically at 10% solvent A for 30 min. This run conditions allowed us to detect smallest chemical changes including the differentiation between the original compound and a deamidated version (Fig. S1). RD2 and L-RD2 can potentially be deamidated at two sites, the C-terminus and the asparagine at position seven. Peak areas of the unmetabolized peptides after different incubation times were normalized to the peptides’ peak areas after direct extraction from the media. […] A chromatographic metabolite profile of L-RD2 in SIF was recorded with the same mobile phases but using a gradient from 0 to 30% solvent A in 30 min.

[6] = Stability in human liver microsomes, RP-HPLC / UHPLC-ESI-QTOF-MS; type: in vitro ADME
Procedure: as §2, §6
For sample analysis from stability tests (see 2.3), mobile phases were acetonitrile (A) and water (B) each supplemented with 0.15% trifluoroacetic acid (TFA) (v/v). The samples were measured isocratically at 10% solvent A for 30 min. This run conditions allowed us to detect smallest chemical changes including the differentiation between the original compound and a deamidated version (Fig. S1). RD2 and L-RD2 can potentially be deamidated at two sites, the C-terminus and the asparagine at position seven. Peak areas of the unmetabolized peptides after different incubation times were normalized to the peptides’ peak areas after direct extraction from the media. […] A chromatographic metabolite profile of L-RD2 in SIF was recorded with the same mobile phases but using a gradient from 0 to 30% solvent A in 30 min. […]

[7] = target: T1, human D-amino acid oxidase (hDAAO); test: hDAAO activity assay (substrate test); type: biochemical; details: 0.2 mM D-alanine as substrate, 2 h incubation
Procedure: as §1
To investigate whether RD2 acts as substrate for hDAAO, the enzyme was incubated with 2.9 mM RD2, horseradish peroxidase and FAD for up to 6 h and the fluorescence signal of the Amplex UltroxRed reagent was measured (sample values). Positive control measurements using 0.2 mM D-alanine as substrate were performed in parallel. Additionally, negative control measurements without substrates were performed. The relative emission at 590 nm was determined by subtracting control measurements to sample values.

[8] = Comparison of RD2 metabolite profiles across species: cynomolgus liver microsomes; type: in vitro ADME, cynomolgus monkey; details: cynomolgus microsome batches, LC-MS
Procedure: as §2, §3
(§7) For the comparison of RD2 metabolite profiles across species (see 2.3), mobile phases were acetonitrile (A) and water (B) each supplemented with 0.1% TFA. […] The amount of the purified HSM-3 was calculated based on a calibration curve of 10 to 100 µM RD2 extracted from human liver microsomes.

MTT cell viability assay = type: cell-based, rat; details: cell viability
Procedure: as §5

[9] = Comparison of RD2 metabolite profiles across species: human liver microsomes; type: in vitro ADME
Procedure: as §2, §6
For the comparison of RD2 metabolite profiles across species (see 2.3), mobile phases were acetonitrile (A) and water (B) each supplemented with 0.1% TFA. The gradient ran from 0 to 100% solvent A and is described in detail in Table S1. The chromatographic RD2 metabolite profiles were screened for potential human-specific metabolites. RD2 and the major RD2 metabolite present after 24 h of incubation in human liver microsome batches 7 and 8, HSM-3, were purified by RP-HPLC. Mobile phases were acetonitrile (A) and water (B) each supplemented with 0.15% TFA. The samples were separated isocratically at 10% solvent A for 30 min. RD2 as well as HSM-3 were collected and the samples were freeze-dried subsequently. The amount of the purified HSM-3 was calculated based on a calibration curve of 10 to 100 µM RD2 extracted from human liver microsomes.

[10] = Comparison of RD2 metabolite profiles across species: rat liver microsomes; type: in vitro ADME; details: rat microsome batches, LC-MS
Procedure: as §2, §3, §7

[11] = Stability of purified HSM-3 stored in solution (MALDI-MS, UHPLC-ESI-QTOF-MS); type: physicochemical; details: stored in solution at low temperatures
CYP1A = target: T2, CYP1A (Homo sapiens, UniProt P05177); test: CYP isoform inhibition in human liver microsomes (Cyprotex); details: human, human liver microsomes, probe ethoxyresorufin (0.5 µM)
T2 sequence (P05177 2-516): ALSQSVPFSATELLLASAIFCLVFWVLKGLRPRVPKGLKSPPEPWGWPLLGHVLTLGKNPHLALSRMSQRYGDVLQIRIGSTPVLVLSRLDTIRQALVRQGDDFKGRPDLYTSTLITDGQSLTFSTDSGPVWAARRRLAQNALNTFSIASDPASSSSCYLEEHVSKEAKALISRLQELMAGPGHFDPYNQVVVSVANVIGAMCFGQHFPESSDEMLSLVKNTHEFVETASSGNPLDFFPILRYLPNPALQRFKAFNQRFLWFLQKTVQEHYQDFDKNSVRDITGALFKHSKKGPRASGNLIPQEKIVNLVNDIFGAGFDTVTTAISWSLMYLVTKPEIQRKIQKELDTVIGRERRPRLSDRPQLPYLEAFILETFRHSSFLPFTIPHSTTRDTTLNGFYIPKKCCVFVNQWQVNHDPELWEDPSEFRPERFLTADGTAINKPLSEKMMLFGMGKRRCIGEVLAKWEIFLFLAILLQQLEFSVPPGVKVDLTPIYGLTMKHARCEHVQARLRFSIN
Procedure: The experiments were performed by Cyprotex. […] The reactions were terminated by methanol and the generated metabolites were monitored by LC-MS/MS or fluorescence. […] All assays were performed sevenfold. […] For all other substrates, the termination plates were centrifuged at 2,500 rpm and 4 °C for 30 min and aliquots of the supernatants were combined and transferred to fresh 96-well plates. Formic acid in deionized water (final concentration 0.1%) containing internal standard was added to the supernatants prior to cassette analysis by LC-MS/MS. A decrease in the formation of the metabolite compared to the vehicle control was used to calculate the IC50 values.

Compound: O=C([O-])c1ccccc1.[Na+] [sodium benzoate]
- decrease in hDAAO activity ([1]; 625 µM): 92.8 ± 0.1% and 93 ± 0.1%
- IC50 ([1]; read-out: IC50 hDAAO (four-parameter fit)): 7 µM

Compound: KLVFFRRRRRR-NH2
- detection of the peptide after incubation in SIF [2]: could not be detected

Compound: Triton X-100 [reference compound]
- cell viability [3]: 14 ± 1%

Compound: PTLHTHNRRRRR-NH2 [L-RD2, reference compound]
- metabolised at 24 h, 150 µM [4]: 23 ± 4%
- metabolised at 24 h, 150 µM ([5]; 150 µM, within one day, read-out: peptide degraded): 92 ± 4%
- half-life at 150 µM ([5]; read-out: half-life (first order kinetics fit) (converted)): 2 h
- deamidation in human liver microsomes ([6]; UHPLC-ESI-QTOF-MS): increasingly metabolized to the one-fold deamidated species
- metabolised at 0.5 h, 150 µM ([6]; pooled human liver microsomes, 150 µM, 37 °C, within 30 min, read-out: peptide degraded): 87 ± 1%
- metabolization in SIF ([2]; 150 µM): completely metabolized within a few seconds

Compound: C[C@@H](N)C(=O)O [D-alanine]
- recorded emission at 590 nm [7]: 61125 ± 2120 AU

Compound: CC(C)C[C@@H](NC(=O)[C@@H]([C@H](C)O)N1CN2CCC[C@@H]2C1=O)C(=O)N[C@H](Cc1c[nH]cn1)C(=O)N[C@@H](C(=O)N[C@H](Cc1c[nH]cn1)C(=O)N[C@H](CC(N)=O)C(=O)N[C@H](CCCNC(=N)N)C(=O)N[C@H](CCCNC(=N)N)C(=O)N[C@H](CCCNC(=N)N)C(=O)N[C@H](CCCNC(=N)N)C(=O)N[C@H](CCCNC(=N)N)C(N)=O)[C@H](C)O [HSM-3] (X1-[dL][dH][dT][dH][dN][dR][dR][dR][dR][dR]-NH2; C-terminus assumed)
- detection of HSM-3 after incubation of RD2 [8]: not detectable
- viability at 2 µM (MTT cell viability assay): 99 ± 3%
- metabolite relative to the parent compound ([9]; human microsome batches 7 and 8, 2 h): 1% and 5%
- metabolite relative to the parent compound ([9]; human microsome batches 7 and 8, 24 h): 31% and 52%
- detection of HSM-3 after incubation of RD2 ([9]; other six human microsome batches, LC-MS): not detectable
- detection of HSM-3 after incubation of RD2 [10]: not detectable
- stability of purified HSM-3 in solution [11]: instable and reacted back to RD2

Compound: O=c1cc(-c2ccccc2)oc2c1ccc1ccccc12 [Alpha-naphthoflavone, reference compound]
- IC50 (CYP1A): 0.0781 µM
